Patent US10202387B2, “Heterocyclyl linked imidazopyridazine derivatives as PI3KB inhibitors” (Janssen Pharmaceutica NV, priority 2014, dated 2019)

Assays:
[1] = test system: Akt phosphorylated at Ser473 in PC-3 cells; assay: Cellular assay: phosphorylation of Akt (Ser473) in PC-3 cells, MSD ELISA; assay type: cell-based; conditions: Homo sapiens, 1 h, 60 min incubation with compound, read-out: IC50 pAkt_S473
Procedure: (§1) Cellular activity of PI3Kβ inhibitors was determined by quantifying the phosphorylation of Akt in PC-3 cells. Akt phosphorylated at Ser473 and Thr308 were measured using an enzyme-linked immunosorbent assay (ELISA; Meso Scale Discovery (MSD). Gaithersburg, Md.) and specific primary antibodies from MSD.
(§2) On day 1, PC3 cells (ATCC […]) were seeded into PerkinElmer MW96 plates at 25.000 cells per well, in 75 μl complete culture medium (DMEM (Dulbecco's Modified Eagle's Medium) high glucose. AQmedia™, D0819, Sigma-Aldrich) containing 10% heat inactivated FCS (Fetal Bovine Serum) and incubated at 37° C., 5% CO2 during 24 hours. On day 2, compound or DMSO (dimethyl sulfoxide) (0.3%) was added and cells were further incubated for 60 min at 37° C., 5% CO2 in a total volume of 100 μl of medium.
(§3) The phosphoprotein assay was executed according to vendor instructions in the Phospho-Akt (Ser473) Assay Whole Cell Lysate Kit (MSD #K15100D-3) and the Phospho-Akt (Thr308) Assay Whole Cell Lysate Kit (MSD #K151DYD-3) using the lysis, blocking and wash buffer provided.
(§4) Briefly, at the end of the cell treatment period, media were removed by aspiration and adherent cells were lysed in 50 μl ice-cold lysis buffer. MSD plates are supplied pre-coated with capture antibodies for Phospho-Akt (Ser473 and Thr308). After blocking, lysates from tissue culture plates were added and plates were washed. Then, a solution containing the detection antibody (anti-total Akt conjugated with an electrochemiluminescent compound-MSD Sulfo-tag label) was added. The signals were detected using an MSD SECTOR Imager 6000 and are proportional to the phospho-Akt titres.
(§5) Data were processed. The percentage of inhibition was plotted against the log concentration of test compounds, and the sigmoidal log concentration-effect curve of best fit was calculated by nonlinear regression analysis. From these concentration-response curves, the IC50 values were calculated. Five concentrations were used for curve fitting.

[2] = target: T1, PIK3Cβ_h (Homo sapiens, UniProt P42338); assay: Enzyme binding assay (KINOMEscan); conditions: DiscoveRx
T1 construct: purchased DiscoveRx Corporation, San Diego (KINOMEscan service)
T1 sequence (P42338 whole entry): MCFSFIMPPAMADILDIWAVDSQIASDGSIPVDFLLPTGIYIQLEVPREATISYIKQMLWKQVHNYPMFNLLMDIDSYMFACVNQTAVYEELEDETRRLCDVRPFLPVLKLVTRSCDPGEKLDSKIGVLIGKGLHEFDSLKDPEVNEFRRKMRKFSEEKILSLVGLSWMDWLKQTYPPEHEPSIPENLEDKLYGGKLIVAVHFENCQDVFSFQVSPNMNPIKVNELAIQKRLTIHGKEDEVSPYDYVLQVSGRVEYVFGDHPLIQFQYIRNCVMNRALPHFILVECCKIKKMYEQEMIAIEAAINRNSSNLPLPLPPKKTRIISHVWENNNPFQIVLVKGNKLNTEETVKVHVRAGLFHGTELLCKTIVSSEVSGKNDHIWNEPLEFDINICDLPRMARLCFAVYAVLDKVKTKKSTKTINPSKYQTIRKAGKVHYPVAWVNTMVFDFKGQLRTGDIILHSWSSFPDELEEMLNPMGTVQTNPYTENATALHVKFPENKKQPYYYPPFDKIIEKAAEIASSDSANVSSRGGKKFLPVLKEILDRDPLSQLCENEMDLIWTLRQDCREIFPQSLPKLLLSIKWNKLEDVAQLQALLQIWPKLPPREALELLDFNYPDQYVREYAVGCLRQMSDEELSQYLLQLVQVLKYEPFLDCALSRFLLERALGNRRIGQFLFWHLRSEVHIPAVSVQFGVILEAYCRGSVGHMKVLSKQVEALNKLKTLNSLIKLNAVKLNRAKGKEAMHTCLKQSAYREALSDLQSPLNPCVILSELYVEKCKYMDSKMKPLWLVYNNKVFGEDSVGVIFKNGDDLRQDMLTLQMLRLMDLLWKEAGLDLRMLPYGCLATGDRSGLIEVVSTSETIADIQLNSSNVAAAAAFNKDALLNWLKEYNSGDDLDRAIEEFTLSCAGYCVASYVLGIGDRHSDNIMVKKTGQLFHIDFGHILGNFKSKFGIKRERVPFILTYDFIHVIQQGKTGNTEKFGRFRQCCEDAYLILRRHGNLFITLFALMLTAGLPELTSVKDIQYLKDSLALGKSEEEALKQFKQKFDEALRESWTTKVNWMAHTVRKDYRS
Procedure: (§6) Enzyme Binding Assays (KINOMEscan®)
(§7) Kinase enzyme binding affinities of compounds disclosed herein were determined using the KINOMEscan technology performed by DiscoveRx Corporation, San Diego, Calif., USA (www.kinomescan.com). Table A reports the obtained Kd values (nM), with the Kd being the inhibitor binding constant: […]

[3] = target: T2, PIK3Cγ_h (Homo sapiens, UniProt P48736); assay: Enzyme binding assay (KINOMEscan); conditions: DiscoveRx
T2 construct: purchased DiscoveRx Corporation, San Diego (KINOMEscan service)
T2 sequence (P48736 whole entry): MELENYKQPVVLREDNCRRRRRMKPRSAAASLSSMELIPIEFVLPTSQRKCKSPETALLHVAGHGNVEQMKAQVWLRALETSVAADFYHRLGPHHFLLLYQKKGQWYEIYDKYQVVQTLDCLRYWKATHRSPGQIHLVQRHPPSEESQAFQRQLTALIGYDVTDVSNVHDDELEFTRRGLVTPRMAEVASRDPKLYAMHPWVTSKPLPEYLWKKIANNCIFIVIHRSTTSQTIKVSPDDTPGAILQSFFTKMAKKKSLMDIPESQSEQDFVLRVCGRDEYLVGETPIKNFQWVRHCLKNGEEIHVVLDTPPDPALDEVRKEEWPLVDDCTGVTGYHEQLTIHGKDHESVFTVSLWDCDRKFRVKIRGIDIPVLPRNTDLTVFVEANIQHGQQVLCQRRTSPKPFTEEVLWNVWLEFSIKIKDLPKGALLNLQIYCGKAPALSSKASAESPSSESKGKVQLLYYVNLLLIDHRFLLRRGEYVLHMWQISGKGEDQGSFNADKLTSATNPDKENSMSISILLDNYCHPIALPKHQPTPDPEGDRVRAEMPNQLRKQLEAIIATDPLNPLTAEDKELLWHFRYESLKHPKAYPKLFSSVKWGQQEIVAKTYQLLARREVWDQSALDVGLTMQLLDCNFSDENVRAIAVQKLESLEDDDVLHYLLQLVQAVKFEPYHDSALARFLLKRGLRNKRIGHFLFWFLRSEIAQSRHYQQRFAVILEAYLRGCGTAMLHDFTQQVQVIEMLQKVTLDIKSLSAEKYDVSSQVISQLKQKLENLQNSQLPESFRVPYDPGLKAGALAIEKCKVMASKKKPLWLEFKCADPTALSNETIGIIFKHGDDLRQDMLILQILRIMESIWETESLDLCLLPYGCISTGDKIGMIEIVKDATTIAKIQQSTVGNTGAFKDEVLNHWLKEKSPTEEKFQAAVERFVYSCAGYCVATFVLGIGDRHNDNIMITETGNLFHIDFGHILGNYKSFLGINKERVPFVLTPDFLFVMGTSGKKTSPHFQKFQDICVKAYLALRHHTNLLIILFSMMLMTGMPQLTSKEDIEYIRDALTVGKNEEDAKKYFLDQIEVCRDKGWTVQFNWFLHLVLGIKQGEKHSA
Procedure: as §6, §7

[4] = target: T3, PIK3Cδ_h (Homo sapiens, UniProt O00329); assay: Enzyme binding assay (KINOMEscan); conditions: DiscoveRx
T3 construct: purchased DiscoveRx Corporation, San Diego (KINOMEscan service)
T3 sequence (O00329 1-1044): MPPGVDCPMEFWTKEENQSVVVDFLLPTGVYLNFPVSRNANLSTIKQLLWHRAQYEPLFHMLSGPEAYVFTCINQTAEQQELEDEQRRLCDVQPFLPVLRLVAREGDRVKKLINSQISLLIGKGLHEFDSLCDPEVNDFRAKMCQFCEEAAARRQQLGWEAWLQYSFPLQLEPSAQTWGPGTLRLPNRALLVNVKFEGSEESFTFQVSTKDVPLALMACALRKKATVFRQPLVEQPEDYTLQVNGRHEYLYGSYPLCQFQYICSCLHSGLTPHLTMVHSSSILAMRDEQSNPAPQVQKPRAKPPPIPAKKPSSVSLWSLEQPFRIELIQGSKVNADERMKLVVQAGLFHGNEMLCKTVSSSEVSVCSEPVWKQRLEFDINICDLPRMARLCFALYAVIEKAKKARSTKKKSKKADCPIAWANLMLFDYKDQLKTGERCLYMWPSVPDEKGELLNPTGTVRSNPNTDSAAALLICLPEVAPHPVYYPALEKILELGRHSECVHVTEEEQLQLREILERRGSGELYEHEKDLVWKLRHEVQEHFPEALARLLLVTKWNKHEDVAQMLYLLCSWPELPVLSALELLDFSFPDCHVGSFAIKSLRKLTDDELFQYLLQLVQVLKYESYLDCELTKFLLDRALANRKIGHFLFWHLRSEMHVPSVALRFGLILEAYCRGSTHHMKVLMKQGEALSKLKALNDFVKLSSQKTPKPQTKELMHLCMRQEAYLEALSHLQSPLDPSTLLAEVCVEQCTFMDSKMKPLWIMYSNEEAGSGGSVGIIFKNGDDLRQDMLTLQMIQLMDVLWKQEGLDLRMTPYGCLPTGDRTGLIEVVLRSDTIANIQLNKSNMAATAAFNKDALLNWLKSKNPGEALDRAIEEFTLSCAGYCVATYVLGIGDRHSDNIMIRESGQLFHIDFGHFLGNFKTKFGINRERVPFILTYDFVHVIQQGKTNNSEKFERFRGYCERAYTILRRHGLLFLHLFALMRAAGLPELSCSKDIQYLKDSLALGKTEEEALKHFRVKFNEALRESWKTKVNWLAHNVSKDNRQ
Procedure: as §6, §7

[5] = target: T4, PIK3Cα_h (Homo sapiens, UniProt P42336); assay: Enzyme binding assay (KINOMEscan); conditions: DiscoveRx
T4 construct: purchased DiscoveRx Corporation, San Diego (KINOMEscan service)
T4 sequence (P42336 whole entry): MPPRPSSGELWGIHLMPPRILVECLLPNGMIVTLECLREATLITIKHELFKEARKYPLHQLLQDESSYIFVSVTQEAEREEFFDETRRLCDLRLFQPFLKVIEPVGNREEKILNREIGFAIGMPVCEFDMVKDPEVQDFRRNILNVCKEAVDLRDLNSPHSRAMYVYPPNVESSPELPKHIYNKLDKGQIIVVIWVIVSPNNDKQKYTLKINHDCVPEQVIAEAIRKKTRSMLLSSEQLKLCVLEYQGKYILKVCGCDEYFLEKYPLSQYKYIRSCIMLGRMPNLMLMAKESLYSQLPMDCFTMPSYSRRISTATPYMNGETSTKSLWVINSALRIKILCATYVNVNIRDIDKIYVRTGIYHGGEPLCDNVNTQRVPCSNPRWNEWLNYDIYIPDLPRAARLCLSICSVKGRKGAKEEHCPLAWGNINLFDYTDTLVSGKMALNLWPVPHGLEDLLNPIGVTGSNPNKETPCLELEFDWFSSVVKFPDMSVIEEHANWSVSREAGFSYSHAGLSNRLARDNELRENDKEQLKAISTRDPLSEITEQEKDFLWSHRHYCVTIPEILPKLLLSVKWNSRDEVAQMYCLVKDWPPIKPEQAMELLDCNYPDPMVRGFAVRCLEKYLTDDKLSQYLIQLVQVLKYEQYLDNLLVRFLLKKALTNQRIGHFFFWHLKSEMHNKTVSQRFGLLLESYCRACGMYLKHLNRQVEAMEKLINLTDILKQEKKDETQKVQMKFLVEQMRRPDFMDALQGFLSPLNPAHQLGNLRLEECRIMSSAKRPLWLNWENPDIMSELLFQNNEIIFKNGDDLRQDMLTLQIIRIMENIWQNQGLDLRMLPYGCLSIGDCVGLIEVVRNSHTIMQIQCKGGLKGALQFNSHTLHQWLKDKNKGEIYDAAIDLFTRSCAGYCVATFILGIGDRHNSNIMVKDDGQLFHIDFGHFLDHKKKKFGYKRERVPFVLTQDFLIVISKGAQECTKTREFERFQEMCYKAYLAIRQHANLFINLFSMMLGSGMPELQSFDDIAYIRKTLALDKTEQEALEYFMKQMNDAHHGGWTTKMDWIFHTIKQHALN
Procedure: as §6, §7

[6] = target: T5, MTOR_h (Homo sapiens, UniProt P42345); assay: Enzyme binding assay (KINOMEscan); conditions: DiscoveRx
T5 construct: purchased DiscoveRx Corporation, San Diego (KINOMEscan service)
Procedure: as §6, §7

[7] = test system: Akt phosphorylated at Thr308 in PC-3 cells; assay: Cellular assay: phosphorylation of Akt (Thr308) in PC-3 cells, MSD ELISA; assay type: cell-based; conditions: Homo sapiens, 1 h, 60 min incubation with compound, read-out: IC50 pAkt_Thr308
Procedure: as §1, §2, §3, §4, §5

Structure (SMILES) | IC50 [1] | Kd [2] | Kd [3] | Kd [4] | Kd [5] | Kd [6] | IC50 [7]
Cc1c(Cc2c(CN3CC4(CC(O)C4)C3)nc3c(-c4cnc[nH]4)cc(N4CCOCC4)nn23)cccc1C(F)(F)F [Compound 27] | 62 nM | 0.4 nM | 589 nM | 10 nM | 240 nM | 1550 nM | 43 nM
Cc1c(Cc2c(CNC(=O)[C@@H]3CCCN3C)nc3c(N)cc(N4CCOCC4)nn23)cccc1C(F)(F)F [Compound 39] | 44 nM | 0.3 nM | 11700 nM | 82 nM | 3550 nM | 7390 nM | 38 nM
Cc1c(Cc2c(CNC(=O)[C@@H]3C[C@@H](O)CN3C)nc3c(N)cc(N4CCOCC4)nn23)cccc1C(F)(F)F [Compound 41] | 60 nM | 0.4 nM | 21400 nM | 48 nM | 5370 nM | 6760 nM | 18 nM
[2H]C1([2H])OC([2H])([2H])C([2H])([2H])N(c2cc(N)c3nc(CN4CC5(C4)CS(=O)(=O)C5)c(Cc4cccc(C(F)(F)F)c4C)n3n2)C1([2H])[2H] [Compound 30] | 4 nM | 0.3 nM | 20000 nM | 12 nM | 617 nM | 8130 nM | 4 nM
Cc1c(Cc2c(CNC(=O)[C@@H]3CCCN3)nc3c(N)cc(N4CCOCC4)nn23)cccc1C(F)(F)F [Compound 35] | 27 nM | 0.2 nM | 8640 nM | 7 nM | 2050 nM | 3220 nM | 18 nM
Cc1c(Nc2c(CN3CC(C)NC(C)C3)nc3c(C(N)=O)cc(N4CCOCC4)nn23)cccc1C(F)(F)F (stereo not drawn) [Compound 21] | 107 nM | 1.1 nM | 4170 nM | 129 nM | 1290 nM | 20000 nM | ~69 nM
Cc1c(Cc2c(CN3CC(C)NC(C)C3)nc3c(-c4cnc[nH]4)cc(N4CCOCC4)nn23)cccc1C(F)(F)F (stereo not drawn) [Compound 16] | 38 nM | 0.7 nM | 5700 nM | 17 nM | 453 nM | 2000 nM | 28 nM
Cc1c(Cc2c(CN3CCCC(CO)C3)nc3c(-c4cnc[nH]4)cc(N4CCOCC4)nn23)cccc1C(F)(F)F (stereo not drawn) [Compound 15] | 30 nM | 1.4 nM | 2190 nM | 22 nM | 537 nM | 7760 nM | ~41 nM
Cc1c(Cc2c(CNC(=O)[C@@H]3C[C@@H](F)CN3)nc3c(N)cc(N4CCOCC4)nn23)cccc1C(F)(F)F [Compound 38] | 54 nM | 0.2 nM | > 30200 nM | 14 nM | 1000 nM | 355 nM | 31 nM
Cc1c(Cc2c(CN3CC(C)NC(C)C3)nc3c(-c4ncc[nH]4)cc(N4CCOCC4)nn23)cccc1C(F)(F)F (stereo not drawn) [Compound 18] | 95 nM | 0.8 nM | 3890 nM | 14 nM | 475 nM | 6070 nM | 51 nM
Cc1c(Cc2c(CN3CC4(C3)CS(=O)(=O)C4)nc3c(C(=O)O)cc(N4CCOCC4)nn23)cccc1C(F)(F)F [Compound 28] | > 513 nM | 0.2 nM | 15100 nM | 13 nM | 372 nM | 21400 nM | > 513 nM

Other lines, results leading:

IC50 [1] | Kd [2] | Kd [3] | Kd [4] | Kd [5] | Kd [6] | IC50 [7] | Structure (SMILES)
4 nM | 0.5 nM | 27600 nM | 8 nM | 436 nM | 11400 nM | 3 nM | Cc1c(Cc2c(CN3CC4(C3)CS(=O)(=O)C4)nc3c(N)cc(N4CCOCC4)nn23)cccc1C(F)(F)F [Compound 7]
> 513 nM | 0.7 nM | 28200 nM | 112 nM | 6310 nM | > 30200 nM | > 513 nM | Cc1c(Cc2c(CN3CC4(CC(O)C4)C3)nc3c(C(=O)O)cc(N4CCOCC4)nn23)cccc1C(F)(F)F [Compound 29]
~89 nM | 1.7 nM | 16200 nM | 191 nM | 11500 nM | 11000 nM | 66 nM | Cc1c(Cc2c(CN3CC(O)C3)nc3c(N)cc(N4CCOCC4)nn23)cccc1C(F)(F)F [Compound 3]
68 nM | 0.3 nM | 4900 nM | 40 nM | 7410 nM | 13800 nM | 69 nM | Cc1c(Cc2c(CN3CCC(N)CC3)nc3c(N)cc(N4CCOCC4)nn23)cccc1C(F)(F)F [Compound 14]
87 nM | 1.5 nM | > 30200 nM | 224 nM | 6310 nM | 18200 nM | ~74 nM | Cc1c(Cc2c(CN3CCC4(CCS(=O)(=O)C4)C3)nc3c(N)cc(N4CCOCC4)nn23)cccc1C(F)(F)F (stereo not drawn) [Compound 34]
28 nM | 0.2 nM | 977 nM | 7 nM | 1380 nM | 3550 nM | 44 nM | Cc1c(Cc2c(CN3CC4(CCCNC4)C3)nc3c(N)cc(N4CCOCC4)nn23)cccc1C(F)(F)F [Compound 13]
~132 nM | 3.6 nM | > 30200 nM | 219 nM | 12000 nM | > 30200 nM | 71 nM | Cc1c(Cc2c(CN3CCC(CS(C)(=O)=O)CC3)nc3c(N)cc(N4CCOCC4)nn23)cccc1C(F)(F)F [Compound 5]
85 nM | 1.7 nM | 8510 nM | 89 nM | 18600 nM | 11000 nM | ~87 nM | Cc1c(Cc2c(CN3CCCC4(CNC4)C3)nc3c(N)cc(N4CCOCC4)nn23)cccc1C(F)(F)F [Compound 12]
~42 nM | 0.6 nM | > 30200 nM | 52 nM | 4790 nM | 5750 nM | ~48 nM | Cc1c(Cc2c(CN3CC(C)NC(C)C3)nc3c(N)cc(N4CCOCC4)nn23)cccc1C(F)(F)F (stereo not drawn) [Compound 10]
117 nM | 4.8 nM | > 30200 nM | 479 nM | > 30200 nM | > 30200 nM | 66 nM | Cc1c(Cc2c(CN3CCCC34CCS(=O)(=O)C4)nc3c(N)cc(N4CCOCC4)nn23)cccc1C(F)(F)F (stereo not drawn) [Compound 31]
